Measurements from US20230003716A1, “METHODS AND APPARATUSES FOR PATIENT-DERIVED MICROORGANOSPHERES” (Xilis, Inc., priority 2020, published 2023).
Read-outs that look alike come from different tables or passages of the source.

Tests used:
[1] = system: PDX240 cells (colorectal cancer patient derived xenograft); experiment: drug response curves, traditional (bulk) organoids versus Micro-Organospheres, PDX240; type: cell-based, human; details: cell viabilities after 3 days of treatment
Text: In some variations, the Micro-Organospheres may be formed from cell lines grown as part of a Patient Derived Xenograft (PDX). For example, FIGS. 28A-28D illustrate Micro-Organospheres formed from cultured PDX240 cells. PDX240 cells are a Patient Derived Xenograft (PDX) tumor cell line (numbered 240 based on patient source) that were human tumors grown in immunodeficient mice (PDX) to form in vivo tumors. The xenograft tissue was extracted dissociated, and used to form Micro-Organospheres as described above. In this example a single cell was included in each Micro-Organospheres as it was formed. […] With progressive time in culture, at least some of the Micro-Organospheres show the cells dividing and forming structures.
(§1) Organoids were formed from Patient Derived Xenograft cells (including the PDX240 cells described above and a second PDX cell line, PDX19187) and were compared with Micro-Organospheres formed using the same cells. The organoids were formed using conventional techniques in which a large mass of […] in a well or dish was seeded with cells and cultured until growth was confirmed. Micro-Organospheres were generated from the traditional organoids.
(§2) Both traditional (“bulk”) organoids and the Micro-Organospheres were then treated with the same drugs (e.g., Oxaliplatin or SN38) and cell viabilities were measured after 3 days of treatment.

[2] = system: Patient-Derived Micro-Organospheres (tumor biopsy); experiment: drug effect screen on Patient-Derived Micro-Organospheres from a patient tumor biopsy; type: cell-based, human; details: for percent survival of the Micro-Organospheres in the presence of the drug: Example 3, FIGS. 23B-23C, predicts drug resistance
Text: The Patient-Derived Micro-Organospheres described herein may be used in a variety of different assays, and in particular may be used to determine drug formulation effects, including toxicity, on normal and/or abnormal (e.g., cancerous) tissue. For example, drug screening may include applying Micro-Organospheres into all or some wells of multi-well (e.g., a 96-well) plate. Alternatively custom plates may be used (e.g., a 10,000 micro-well array may be formed of a 100×100 wells). The Micro-Organospheres (e.g., gel droplets) may be applied into, or in some variations onto the multiple microwell arrays and incubated with culture medium. The Micro-Organospheres may be cultured over the course of 3-5 days. In some variations, on day 5, the wells (e.g., micro-reactors) may then be dosed with drug compounds, e.g., based on a set of FDA-approved anticancer drugs, to examine the effects of the drug panel. For example, the drugs texted may be based on the National Cancer Institute (Division of Cancer Treatment and Diagnosis (11)) screen, consisting of 147 agents intended to enable cancer research, drug discovery and combination drug studies. On Day 7, the Micro-Organospheres may be imaged via standard fluorescent microscopy and ranked based on drug response.
In this example, the screening assay may be automated. This may enable repeatable and automated workflow, which may increase the number of drugs screened from a few to hundreds. FIGS. 17A-17E illustrate one example of this workflow. In FIG. 17A, a tumor biopsy is taken and a plurality (e.g., >10,000) Micro-Organospheres are formed as described above (in FIG. 17A the junction region forming the Micro-Organospheres is illustrated).
In a similar set of experiments, Micro-Organospheres were generated from biopsy material (FIG. 23A), and a drug effect screen was performed using the resulting Micro-Organospheres. […] Thus, the Micro-Organospheres correlated strongly with patient response to the standard of care drugs. […]

patient tumor = experiment: actual response of the patient's tumor to drug treatment; type: in vivo, human; details: for patient response to treatment: Example 3, treated with both Oxaliplatin and Irinotecan, after 6 months of treatment
traditional cell line = experiment: traditional (2D) tumor cell line drug assay; type: cell-based; details: FIG. 22A; all dose ranges examined; predicts drug resistance
Text: As mentioned above, the Patient-Derived Micro-Organospheres and methods of using them to screen for drug compositions may be used to accurately predict the response of a patient tumor to one or more drug therapies. […] For example, in FIG. 22A-22D, the Micro-Organospheres, but not a cell line, was able to correlate with patient response.

[3] = system: PDX19187 cells (colorectal cancer); type: cell-based, human; details: cell viabilities after 3 days of treatment
Method: as §1, §2

## O=c1[nH]cc(F)c(=O)[nH]1 [5-FU, Fluorouracil]
[1]
  drug response curve (cell viability), bulk organoids compared with Micro-Organospheres: comparable responses

## CCc1c2c(nc3ccc(OC(=O)N4CCC(N5CCCCC5)CC4)cc13)-c1cc3c(c(=O)n1C2)COC(=O)[C@]3(O)CC [Irinotecan]
[2]
  percent survival of the Micro-Organospheres in the presence of the drug: lack of effect
Patient tumor
  patient response to treatment: no response

## O=C1[O][Pt]2([NH][C@@H]3CCCC[C@H]3[NH]2)[O]C1=O [Oxaliplatin]
Traditional cell line
  drug effect on traditional cell line: no effect
[2]; Example 2, FIG. 22B, predicts drug sensitivity
  cell survival of tumor Micro-Organospheres: significant decreases in cell survival
[2]
  percent survival of the Micro-Organospheres in the presence of the drug: no change in the percent survival
Patient tumor; Example 2, FIGS. 22C (before) and 22D (post treatment)
  tumor response of the patient to treatment: responded to treatment
Patient tumor
  patient response to treatment: no response
[3]; listed as Oxalipalatin
  drug response curve (cell viability), bulk organoids compared with Micro-Organospheres: comparable response

## CCc1c2c(nc3ccc(O)cc13)-c1cc3c(c(=O)n1C2)COC(=O)[C@]3(O)CC [SN38, 7-Ethyl-10-hydroxy-camptothecin]
[3]
  drug response curve (cell viability), bulk organoids compared with Micro-Organospheres: comparable responses
[1]
  drug response curve (cell viability), bulk organoids compared with Micro-Organospheres: comparable responses
